{
  "source": "ChEMBL document CHEMBL1149008",
  "about": "“Antitumor agents, 81. Justicidin-A and diphyllin, two cytotoxic principles from Justicia procumbens” (1986)",
  "data": [
    {"test_system": "KB", "assay": "Cytotoxicity against human KB cells", "assay_type": "functional", "conditions": "read-out: ED50 (the source's name)", "units": {"EC50": "µg/mL"}, "values": [
      {"smiles": "COc1cc2c(O)c3c(c(-c4ccc5c(c4)OCO5)c2cc1OC)C(=O)OC3", "note": "[DIPHYLLIN]", "EC50": "< 1"},
      {"smiles": "COc1cc2c(OC)c3c(c(-c4ccc5c(c4)OCO5)c2cc1OC)C(=O)OC3", "note": "[JUSTICIDIN A]", "EC50": "< 1"},
      {"smiles": "O=C1OCc2c1cc1cc3c(cc1c2-c1ccc2c(c1)OCO2)OCO3", "EC50": "> 10.5"},
      {"smiles": "COc1c2c(c(-c3ccc4c(c3)OCO4)c3cc4c(cc13)OCO4)COC2=O", "note": "[NEOJUSTICIN A]", "EC50": 9},
      {"smiles": "COc1cc2c(OC)c3c(c(-c4ccc5c(c4)OCO5)c2cc1OC)COC3=O", "note": "[NEOJUSTICIN B]", "EC50": "> 10.5"}
    ]}
  ]
}
